Test results taken from patent US11780830B2, “Triazolone derivatives or salts thereof and pharmaceutical compositions comprising the same” (YUHAN CORPORATION, priority 2018, dated 2023).

Key:
Type in all cases: biochemical
[1] = target: T1, recombinant human DAO (diamine oxidase) (Homo sapiens, UniProt P19801); assay: Activity on recombinant human DAO, method similar to the VAP-1 assay; conditions: substrate 1 mM putrescine; read-out: Inhibitory Activity (IC50, nM) DAO
T1 construct: purchased R&D systems
T1 sequence (P19801 20-751): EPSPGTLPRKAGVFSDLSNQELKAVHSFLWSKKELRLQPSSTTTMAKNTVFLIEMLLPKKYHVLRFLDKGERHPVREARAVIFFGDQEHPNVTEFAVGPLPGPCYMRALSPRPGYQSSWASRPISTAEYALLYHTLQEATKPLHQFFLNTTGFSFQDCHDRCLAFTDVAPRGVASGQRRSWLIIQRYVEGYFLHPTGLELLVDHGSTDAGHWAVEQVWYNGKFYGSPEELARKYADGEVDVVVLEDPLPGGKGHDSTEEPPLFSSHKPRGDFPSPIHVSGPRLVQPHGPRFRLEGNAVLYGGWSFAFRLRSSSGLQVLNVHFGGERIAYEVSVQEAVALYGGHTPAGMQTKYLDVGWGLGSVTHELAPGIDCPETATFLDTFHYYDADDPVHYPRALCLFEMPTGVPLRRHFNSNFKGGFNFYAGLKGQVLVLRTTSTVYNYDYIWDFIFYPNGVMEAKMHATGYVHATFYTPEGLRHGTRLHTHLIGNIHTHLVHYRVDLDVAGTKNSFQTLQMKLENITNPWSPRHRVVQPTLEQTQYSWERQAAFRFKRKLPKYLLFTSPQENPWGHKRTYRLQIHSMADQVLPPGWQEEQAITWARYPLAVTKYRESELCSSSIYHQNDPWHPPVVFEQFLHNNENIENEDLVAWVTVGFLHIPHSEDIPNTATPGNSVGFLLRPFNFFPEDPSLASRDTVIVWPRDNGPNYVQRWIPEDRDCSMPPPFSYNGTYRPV
In short: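 Inhibition of recombinant human diamine oxidase (DAO, R&D systems) was assessed by the same approach as the VAP-1 assay, using 1 mM putrescine as substrate. Hydrogen peroxide formed was detected through an HRP-coupled Amplex Red reaction yielding fluorescent resorufin, read at 544 nm excitation and 590 nm emission. IC50 values came from four-parameter logistic fitting in GraphPad Prism.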

[2] = target: T2, recombinant human MAO-B (monoamine oxidase-B) (Homo sapiens, UniProt P27338); assay: Activity on recombinant human MAO-B, method similar to the VAP-1 assay; conditions: substrate 1 mM benzylamine; read-out: Inhibitory Activity (IC50, nM) MAO-B
T2 construct: purchased Sigma-Aldrich
T2 sequence (P27338 1-520): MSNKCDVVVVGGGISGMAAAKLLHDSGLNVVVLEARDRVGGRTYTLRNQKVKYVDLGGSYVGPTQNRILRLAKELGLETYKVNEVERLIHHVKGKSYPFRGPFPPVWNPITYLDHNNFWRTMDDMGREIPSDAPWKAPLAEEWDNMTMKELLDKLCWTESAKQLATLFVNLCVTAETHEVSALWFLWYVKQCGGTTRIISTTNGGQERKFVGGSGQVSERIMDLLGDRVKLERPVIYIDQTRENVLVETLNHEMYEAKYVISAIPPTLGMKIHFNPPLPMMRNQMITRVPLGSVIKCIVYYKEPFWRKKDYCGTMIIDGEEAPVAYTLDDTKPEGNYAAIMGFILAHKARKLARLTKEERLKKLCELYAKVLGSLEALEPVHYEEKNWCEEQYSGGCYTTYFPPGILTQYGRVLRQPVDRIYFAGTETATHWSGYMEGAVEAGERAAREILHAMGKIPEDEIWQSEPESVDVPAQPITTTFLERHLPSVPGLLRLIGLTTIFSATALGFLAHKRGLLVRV
In short: (§1)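 Amplex Red/HRP coupled read-out of H2O2 with 0.5 mM tyramine for MAO-A or 1 mM benzylamine for MAO-B, following a 30-min compound–enzyme preincubation at 37° C. IC50 from percent inhibition of signal rate relative to uninhibited control.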

[3] = target: T3, recombinant human MAO-A (monoamine oxidase-A) (Homo sapiens, UniProt P21397); assay: Activity on recombinant human MAO-A, method similar to the VAP-1 assay; conditions: substrate 0.5 mM tyramine; read-out: Inhibitory Activity (IC50, nM) MAO-A
T3 construct: purchased Sigma-Aldrich
T3 sequence (P21397 1-527): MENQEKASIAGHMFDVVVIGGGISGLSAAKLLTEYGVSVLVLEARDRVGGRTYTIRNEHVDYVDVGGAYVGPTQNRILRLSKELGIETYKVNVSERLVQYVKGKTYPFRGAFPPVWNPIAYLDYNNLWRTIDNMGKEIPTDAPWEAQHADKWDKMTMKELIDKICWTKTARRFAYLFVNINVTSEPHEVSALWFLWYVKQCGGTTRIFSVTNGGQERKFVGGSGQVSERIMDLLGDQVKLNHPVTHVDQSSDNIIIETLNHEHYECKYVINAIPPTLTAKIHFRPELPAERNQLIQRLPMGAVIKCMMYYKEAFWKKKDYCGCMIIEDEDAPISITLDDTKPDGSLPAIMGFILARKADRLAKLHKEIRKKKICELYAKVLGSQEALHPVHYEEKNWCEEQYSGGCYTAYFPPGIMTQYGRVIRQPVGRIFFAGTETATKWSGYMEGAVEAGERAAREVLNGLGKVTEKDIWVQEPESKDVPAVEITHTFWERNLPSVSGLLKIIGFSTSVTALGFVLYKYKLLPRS
In short: as §1

[4] = target: T4, recombinant human VAP-1 (Homo sapiens, UniProt Q16853); assay: Activity on recombinant human VAP-1, HRP-coupled Amplex Red hydrogen peroxide assay; conditions: substrate 1 mM benzylamine; compound incubated with enzyme at 37° C. for 30 minutes; pH 7.4; read-out: Inhibitory Activity (IC50, nM) human VAP-1
T4 construct: purchased R&D systems
T4 sequence (Q16853 1-763): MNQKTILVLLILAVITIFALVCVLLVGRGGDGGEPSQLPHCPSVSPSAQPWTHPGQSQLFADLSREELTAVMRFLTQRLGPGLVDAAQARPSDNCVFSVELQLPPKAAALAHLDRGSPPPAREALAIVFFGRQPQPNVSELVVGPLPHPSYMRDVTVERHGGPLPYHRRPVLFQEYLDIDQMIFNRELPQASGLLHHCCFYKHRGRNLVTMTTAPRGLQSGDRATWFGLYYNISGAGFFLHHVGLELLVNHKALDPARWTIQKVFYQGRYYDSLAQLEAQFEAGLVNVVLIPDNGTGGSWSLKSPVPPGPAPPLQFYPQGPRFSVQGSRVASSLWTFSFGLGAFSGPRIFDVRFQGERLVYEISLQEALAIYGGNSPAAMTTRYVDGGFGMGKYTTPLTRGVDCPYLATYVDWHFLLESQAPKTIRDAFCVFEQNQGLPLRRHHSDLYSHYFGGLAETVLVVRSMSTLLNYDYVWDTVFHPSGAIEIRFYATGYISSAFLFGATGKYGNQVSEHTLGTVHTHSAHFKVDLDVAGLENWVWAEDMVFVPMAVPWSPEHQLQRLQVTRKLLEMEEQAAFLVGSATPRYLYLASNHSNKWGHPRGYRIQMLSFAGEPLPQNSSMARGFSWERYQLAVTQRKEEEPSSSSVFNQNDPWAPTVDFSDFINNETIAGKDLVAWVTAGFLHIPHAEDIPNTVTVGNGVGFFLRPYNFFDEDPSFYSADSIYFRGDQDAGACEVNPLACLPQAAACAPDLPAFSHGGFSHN
In short: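 Dose-response IC50 determined from reduction in resorufin signal rate (544/590 nm, 1-2 h), with 30 min compound preincubation at 37 °C and 1 mM benzylamine as substrate.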

Structure (SMILES) | IC50 [1] | IC50 [2] | IC50 [3] | IC50 [4]
CC(C)Oc1ccc(-c2ccc(Cn3cnn(C/C(=C/F)CN)c3=O)s2)cn1 [Example 185, 2-[(2E)-2-(aminomethyl)-3-fluoroprop-2-en-1-yl]-4-({5-[6-(propan-2-yloxy)pyridin-3-yl]thiophen-2-yl}methyl)-2,4-dihydro-3H-1,2,4-triazol-3-one] | 730 nM | 310 nM | > 100000 nM | 2.7 nM
Cn1cc(-c2ccc(Cn3cnn(C/C(=C/F)CN)c3=O)s2)ccc1=O [Example 187, 5-[5-({1-[(2E)-2-(aminomethyl)-3-fluoroprop-2-en-1-yl]-5-oxo-1,5-dihydro-4H-1,2,4-triazol-4-yl}methyl)thiophen-2-yl]-1-methylpyridin-2(1H)-one] | 1800 nM | 1600 nM | > 100000 nM | 1.3 nM
CS(=O)(=O)CCn1cc(-c2ccc(Cn3cnn(C/C(=C/F)CN)c3=O)s2)ccc1=O [Example 188, 5-[5-({1-[(2E)-2-(aminomethyl)-3-fluoroprop-2-en-1-yl]-5-oxo-1,5-dihydro-4H-1,2,4-triazol-4-yl}methyl)thiophen-2-yl]-1-[2-(methylsulfonyl)ethyl]pyridin-2(1H)-one] | 450 nM | > 10000 nM | > 100000 nM | 4.2 nM
CC(=O)Nc1nc2cc(-c3ccc(Cn4cnn(C/C(=C/F)CN)c4=O)s3)ccc2s1 [Example 189, N-{5-[5-({1-[(2E)-2-(aminomethyl)-3-fluoroprop-2-en-1-yl]-5-oxo-1,5-dihydro-4H-1,2,4-triazol-4-yl}methyl)thiophen-2-yl]-1,3-benzothiazol-2-yl}acetamide] | 780 nM | 420 nM | 22500 nM | 0.7 nM
NC/C(=C\F)Cn1ncn(Cc2ccc(-c3cnn(C4CCNCC4)c3)s2)c1=O [Example 190, 2-[(2E)-2-(aminomethyl)-3-fluoroprop-2-en-1-yl]-4-({5-[1-(piperidin-4-yl)-1H-pyrazol-4-yl]thiophen-2-yl}methyl)-2,4-dihydro-3H-1,2,4-triazol-3-one] | 1800 nM | > 100000 nM | > 100000 nM | 3.8 nM

Further lines, results first:

IC50 [1] | IC50 [2] | IC50 [3] | IC50 [4] | Structure (SMILES)
3800 nM | 330 nM | > 100000 nM | 3.4 nM | NC/C(=C\F)Cn1ncn(Cc2ccc(-c3cccc(-c4cc[nH]n4)c3)s2)c1=O [Example 184, 2-[(2E)-2-(aminomethyl)-3-fluoroprop-2-en-1-yl]-4-({5-[3-(1H-pyrazol-3-yl)phenyl]thiophen-2-yl}methyl)-2,4-dihydro-3H-1,2,4-triazol-3-one]
130 nM | 1500 nM | > 100000 nM | 1.1 nM | NC/C(=C\F)Cn1ncn(Cc2ccc(-c3ccc(=O)n(Cc4ccccc4)c3)s2)c1=O [Example 191, 5-[5-({1-[(2E)-2-(aminomethyl)-3-fluoroprop-2-en-1-yl]-5-oxo-1,5-dihydro-4H-1,2,4-triazol-4-yl}methyl)thiophen-2-yl]-1-benzylpyridin-2(1H)-one]
310 nM | 120 nM | > 100000 nM | 1 nM | NC/C(=C\F)Cn1ncn(Cc2ccc(-c3ccc4nsnc4c3)s2)c1=O [Example 192, 2-[(2E)-2-(aminomethyl)-3-fluoroprop-2-en-1-yl]-4-{[5-(2,1,3-benzothiadiazol-5-yl)thiophen-2-yl]methyl}-2,4-dihydro-3H-1,2,4-triazol-3-one]
2000 nM | 85 nM | > 100000 nM | 1 nM | NC/C(=C\F)Cn1ncn(Cc2ccc(-c3ccc4c(c3)COC4)s2)c1=O [Example 193, 2-[(2E)-2-(aminomethyl)-3-fluoroprop-2-en-1-yl]-4-{[5-(1,3-dihydro-2-benzofuran-5-yl)thiophen-2-yl]methyl}-2,4-dihydro-3H-1,2,4-triazol-3-one]
